Source: patent publication US20110079773A1, “Selectively Functionalized Rylene Imides and Diimides” (priority 2009, published 2011)
Values after ≈ are worked out from the molar mass of the structure shown. Where two headings read alike, the source gives them in different places.

How the values were obtained:
[1] = literature values (footnotes a Gosztola et al., c Lee et al.), cited from earlier work; for E^−1/2: first reduction potential; for E^2−1/2: second reduction potential
[2] = cited from earlier work; for ε: extinction coefficient at λmax; for ε / λem: literature values (footnotes a, b); for λem: fluorescence emission maximum; for φF: fluorescence quantum yield, literature values (footnotes d-h); for λmax: literature values (footnotes a Gosztola et al., b Holtrup et al.)
[3] = Steady-state electronic absorption and fluorescence spectroscopy; assay type: physicochemical; conditions: for E(S1): determined from the average energy of the absorption and emission maxima; for λmax: UV-vis absorption in toluene; for ε: extinction coefficient at λmax; for ε / λem: toluene; for λem: fluorescence emission maximum; for φF: fluorescence quantum yield
Procedure: Steady-state electronic absorption spectra were recorded on a Shimadzu 1601 UV/Vis spectrometer with a 2 mm quartz cuvette. Fluorescence measurements were performed using a PTI Quanta-Master 1 single photon counting spectrofluorimeter in a right angle configuration with a 1 cm quartz cuvette.
The intensity of the S0→>S1 transition increases with the size of the aromatic core, while the energy decreases. The fluorescence spectrum of each chromophore is shown in FIG. 4b and summarized in Table 4 along with that of compounds 1, 3, 5, 7, and 9. A similar trend with the emission maxima moving to longer wavelengths as the size of the aromatic core increases was observed. The electronic absorption and fluorescence properties of all the alkylated chromophores are very similar to those of the parent compounds. No observable trend is apparent for the slight shifts in λmax; however, with the exception of 2, all alkylated compounds have slightly lower extinction coefficients than their parent compounds. The fluorescence emission maxima of the alkylated compounds (Table 4) are similar to those of the parent compounds as reported in the literature. See Hydlovic et al., Phtochem. Photobiol. A., 112: 197-203 (1998); Licchelli et al., Chem. Eur. J., 8: 5161-5169 (2002); Weil et al., Chem. Eur. J., 8: 4742-4750 (2002); and Sadrai et al., J. Phys. Chem., 96: 7988-7996 (1992).

[4] = literature values (footnote a Hayes et al.); cited from earlier work
[5] = Electrochemistry (redox potentials); assay type: physicochemical; conditions: for E^−1/2: first reduction potential; for E^−1/2 / E^2−1/2 / E^+1/2: dichloromethane, 0.1 M TBAPF6; for E^−1/2 / E^+1/2: Fc/Fc+ (0.46 V vs. SCE) internal standard; for E^2−1/2: second reduction potential; for Reduction potential more negative than that of parent compound: shift versus unsubstituted parent; for E^+1/2: oxidation potential
Procedure: Electrochemical measurements were performed using a CH Instruments Model 622 electrochemical workstation. Measurements for compounds 4, 6, 8, and 10 were performed in dichloromethane containing 0.1 M tetrabutylammonium hexafluorophosphate (TBAPF6) electrolyte. Measurements for 2 were performed in benzonitrile with the same electrolyte. A 1.0 mm diameter platinum disk electrode, platinum wire electrode, and […] reference electrode were employed. The ferrocene/ferrocenium redox couple (Fc/Fc^+, 0.46 V vs. SCE) (see Connelly et al., Chem. Rev., 96: 877-910 (1996)) was used as an internal standard. TBAPF6 was recrystallized twice from ethyl acetate prior to use.
Alkylation (e.g., substitution of the phenethyl groups) ortho to the imide nitrogen atoms appears to render the present compounds somewhat more difficult to reduce, but easier to oxidize (Table 3). The reduction potentials of the disubstituted compounds (2, 4, and 6) are approximately 130 mV more negative than those of their parent compounds. Correspondingly, the oxidation potential of the disubstituted 6 is 40 mV less positive than that of […]. Tetrasubstituted 8 and 10 have reduction potentials that are more negative by ˜200 mV than their unsubstituted analogs. These shifts in redox potentials reasonably arise from the electron-donating nature of the alkylating (e.g., phenethyl) groups. The oxidation and reduction potentials of all alkylated molecules shift in the same direction by nearly the same amount, such that the corresponding HOMO-LUMO energy gap remains the same, as is reflected in their electronic absorption and emission spectra described below.

Solubility in toluene = assay type: physicochemical; conditions: for solubility: organic solvent or mixture
Procedure: As used herein, a compound can be considered soluble in a solvent when at least 0.1 mg of the compound can be dissolved in 1 mL of the solvent. Examples of common organic solvents include petroleum ethers; acetonitrile; aromatic hydrocarbons such as benzene, toluene, xylene, and mesitylene; ketones such as acetone, and methyl ethyl ketone; ethers such as tetrahydrofuran, dioxane, bis(2-methoxyethyl)ether, diethyl ether, di-isopropyl ether, and t-butyl methyl ether; alcohols such as methanol, ethanol, butanol, and isopropyl alcohol; aliphatic hydrocarbons such as hexanes; esters such as methyl acetate, ethyl acetate, methyl formate, ethyl formate, isopropyl acetate, and butyl acetate; amides such as dimethylformamide and dimethylacetamide; sulfoxides such as dimethylsulfoxide; halogenated aliphatic and aromatic hydrocarbons such as dichloromethane, chloroform, ethylene chloride, chlorobenzene, dichlorobenzene, and trichlorobenzene; and cyclic solvents such as cyclopentanone, cyclohexanone, and 2-methypyrrolidone. In various embodiments, the present compounds can have good solubility in solvents that are aromatic hydrocarbons such as benzene, toluene, xylene, and mesitylene.
Table 2 below compares the solubilities of several compounds according to the present teachings with their unsubstituted counterparts in toluene.

Compound: CCCCCCCCN1C(=O)c2cccc3cccc(c23)C1=O [Compound 1, N-(n-octyl)-naphthalene-1,8-dicarboximide]
- E^−1/2 [1]: −1.40^a
- ε [2]: 10647 M⁻¹ cm⁻¹
- λem [2]: 386^a nm
- φF [2]: 0.25^d
- λmax [2]: 350 nm
- E(S1) [3]: 3.38 eV
- τD [4]: <50^a ps

Compound: CCCCCCCCN1C(=O)c2ccc3c4c(ccc(c24)C1=O)C(=O)N(CCCCCCCC)C3=O [Compound 3, N,N′-bis(n-octyl)-naphthalene-1,8:4,5-bis(dicarboximide)]
- E^−1/2 [1]: −0.48^a
- E^2−1/2 [1]: −0.99^a
- ε [2]: 14500 M⁻¹ cm⁻¹
- λem [2]: 407^a nm
- φF [2]: 0.0018^e
- λmax [2]: 382 nm
- E(S1) [3]: 3.15 eV
- τD [4]: <20^a ps

Compound: CCCCCCCCN1C(=O)c2cc(CCc3ccccc3)c3c4c(c(CCc5ccccc5)cc(c24)C1=O)C(=O)N(CCCCCCCC)C3=O [Compound 4, N,N′-bis(n-octyl)-2,7-bis(phenethyl)naphthalene-1,8:4,5-bis(dicarboximide)]
- λmax [3]: 390 nm
- E(S1) [3]: 3.09 eV
- ε [3]: 14000 M⁻¹ cm⁻¹
- λem [3]: 415^ nm
- φF [3]: 0.0005
- E^−1/2 [5]: −0.61^
- E^2−1/2 [5]: −1.15^
- Reduction potential more negative than that of parent compound [5]: approximately 130 mV

Compound: CCCCC(CC)CN1C(=O)c2ccc3c4cccc5cccc(c6ccc(c2c36)C1=O)c54 (stereo not drawn) [Compound 5, N-(2′-ethylhexyl)-perylene-3,4-dicarboximide]
- E^−1/2 [1]: −1.00^c
- E^2−1/2 [1]: −1.49^c
- ε [2]: 29970 M⁻¹ cm⁻¹
- λem [2]: 539^a nm
- φF [2]: 0.98^f
- λmax [2]: 505 nm
- E(S1) [3]: 2.38 eV
- solubility (Solubility in toluene): 2000 µg/mL (≈ 4610 µM)
- τD [4]: 3500 ± 100^a ps
- E^+1/2 [5]: 1.41 V

Compound: CCCCCCCCN1C(=O)c2c(CCc3ccccc3)cc3c4cc(CCc5ccccc5)c5c6c(c(CCc7ccccc7)cc(c7cc(CCc8ccccc8)c(c2c37)C1=O)c64)C(=O)N(CCCCCCCC)C5=O [Compound 8, N,N′-bis(n-octyl)-2,5,8,11-tetrakis(phenethyl)perylene-3, 4:9,10-bis(dicarboximide)]
- λmax [3]: 525 nm
- E(S1) [3]: 2.35 eV
- ε [3]: 58000 M⁻¹ cm⁻¹
- λem [3]: 533^ nm
- φF [3]: 0.99
- solubility (Solubility in toluene): 2000 µg/mL (≈ 1940 µM)
- E^−1/2 [5]: −0.75^
- E^+1/2 [5]: 1.63 V
- E^2−1/2 [5]: −0.93^
- Reduction potential more negative than that of parent compound [5]: ~200 mV

Compound: CCCCC(CC)CN1C(=O)c2c(CCc3ccccc3)cc3c4ccc5c6cc(CCc7ccccc7)c7c8c(c(CCc9ccccc9)cc(c9ccc(c%10cc(CCc%11ccccc%11)c(c2c3%10)C1=O)c4c59)c86)C(=O)N(CC(CC)CCCC)C7=O (stereo not drawn) [Compound 10, N,N′-bis(2-ethylhexyl)-2,5,10,13-tetrakis(phenethyl)terrylene-3, 4:11,12-bis(dicarboximide)]
- λmax [3]: 649 nm
- E(S1) [3]: 1.90 eV
- ε [3]: 80000 M⁻¹ cm⁻¹
- λem [3]: 661^ nm
- φF [3]: 0.95
- solubility (Solubility in toluene): 3000 µg/mL (≈ 2600 µM)
- E^−1/2 [5]: −0.83^
- E^+1/2 [5]: 1.1 V
- Reduction potential more negative than that of parent compound [5]: ~200 mV

Compound: N,N′-bis(2-ethylhexyl)-terrylene-3,4:11,12-bis(dicarboximide) [Compound 9]
- E^−1/2 [1]: −0.63^c
- ε [2]: 93000 M⁻¹ cm⁻¹
- λem [2]: 673^b nm
- φF [2]: 0.95^h
- λmax [2]: 650 nm
- E(S1) [3]: 1.88 eV
- Solubility in toluene (Solubility in toluene): <1000 µg/mL
- E^+1/2 [5]: 1.12 V

Compound: N,N′-bis(n-octyl)-perylene-3, 4:9,10-bis(dicarboximide) [Compound 7]
- E^−1/2 [1]: −0.50^c
- E^2−1/2 [1]: −0.73^c
- ε [2]: 80000 M⁻¹ cm⁻¹
- λem [2]: 535^a nm
- φF [2]: 0.99^g
- λmax [2]: 526 nm
- E(S1) [3]: 2.34 eV
- Solubility in toluene (Solubility in toluene; toluene): <1000 µg/mL
- E^+1/2 [5]: 1.67 V
